# “Also recorded” adds a separate entry of the source.
# B1: rGDF15: recombinant human GDF-15 (R&D Systems), member of the TGF-β superfamily (protein, UniProt Q99988 195-308, looked up)
# Growth/differentiation factor …: ARARNGDHCPLGPGRCCRLHTVRASLEDLGWADWVLSPREVQVTMCIGACPSQFRAANMHAQIKTSLHRLKPDTVPAPCCVPASYNPMVLIQKTDTGVSLQTYDDLLAKDCHCI
# Key:
# [1] = system: dendritic cells (BMDC); experiment: Efferocytosis assay: dendritic cells incubated with apoptotic Jurkat cells (flow cytometry or Incucyte live-cell imaging); assay type: cell-based, mouse; conditions: apoptotic Jurkat targets; for erastin-dependent increase in efferocytosis by dendritic cells: inhibitor given together with 5 μM erastin; for efferocytosis (apoptotic cell uptake) by dendritic cells: 1:5 phagocyte:target ratio, cells pretreated 1 hour with the substance
# Experimental: (§1) Efferocytosis assays. For induction of apoptosis, human Jurkat T cells were with stained with CypHerSE (#PA15401, GE Healthcare) or TAMRA (#C-1171, Invitrogen) or pHrodo™ Green STP Ester (#P35369, ThermoFisher), resuspended in RPMI with 5% fetal calf serum, treated with 150 mJ/cm^2 ultraviolet C irradiation (Stratalinker) and incubated for 4 h at 37° C. with 5% CO2. Dendritic cells were incubated with apoptotic targets at a 1:5 phagocyte: target ratio for the indicated times. Phagocytosis was assessed by a flow cytometry-based assay^21 or by Incucyte Live-cell imaging. As alternative targets for phagocytosis, dendritic cells were incubated with pHrodo™ Green E. coli BioParticles™ (#P35366, ThermoFisher) or Streptavidin Fluoresbrite® YG Microspheres, 2.0 μm (for simplicity, beads) at a 1:5 phagocyte: target ratio for the indicated times. When applicable, cells were pretreated for 1 hour with 5 μM erastin (#S7242, Bio-Connect B.V), 200 μM CP-91149 (#S2717, Bio-Connect B.V.), 0.2 mM 2-DG (2-Deoxy-D-glucose; #D8375-1G, Sigma), 5 μM UK5099 (#PZ0160, Sigma), 40 μM DON (6-Diazo-5-oxo-L-norleucine; #D2141-5 MG, Sigma), 10 μM 3-BP (3-Bromo-2-oxopropionic acid, #376817-M, Sigma), 10 mM Glutamate (#6106 Apr. 3, Sigma) before addition of targets.
# [2] = system: dendritic cells; experiment: Determination of glycogen concentration in dendritic cells; assay type: cell-based, mouse; conditions: CP-91149 added to erastin-treated BMDC
# Experimental: Determination of glycogen concentration. The glycogen concentration was measured using a Glycogen Colorimetric/Fluorometric Assay Kit (#GENT-K646-10, BioVision) according to the manufacturer's instructions.
# [3] = system: C57BL/6J mice; experiment: Full-thickness skin wounding (8-mm punch biopsy), wound healing in wild-type mice; assay type: in vivo, mouse
# Description: (§2) Skin wounding and erastin regimen. Full-thickness wounds were made as previously described^65.56 Briefly, wounds were made on shaved back skin by using 8-mm punch biopsy needles (Stiefel Instruments) under analgesia and general anesthesia in 8-week-old female C57BL/6J, B6.BKS (D)-Leprdb/J (db/db), GDF15KO, Slc7a11KO and control littermates. For wound healing experiments, assuming standard deviations of 10-15%, an experimental group of n=10 is needed to obtain statistical power of 90% (significance level 0.05) and detect a difference between means of 20%, using two-tailed paired T-testing. No animals were excluded from any experiment.
# For topical applications, mice were intradermally injected with Imidazole ketone erastin (IKE at 20 mg kg^−1 in 100 μl PBS; MedChemExpress, #HY-114481) or recombinant human GDF-15 (0.7 mg kg^−1 in 100 μl PBS; R&D Systems, #9279-GD-050) or RSL3 (20 mg kg-1 in 100 μl PBS; Sellechem, #S8155) or the respective vehicle controls (DMSO or 4 mM HCl in 100 μl PBS) at the time of wounding and for two consecutive days. For the experiments indicated as ‘erastin regimen’ or vehicle regimen, 5 million apoptotic Jurkat cells were administrated once on day 0 in 50 μl PBS on top of back skin immediately after full-thickness excision biopsy. […]
# [4] = system: db/db mice; experiment: Full-thickness skin wounding, wound healing in diabetic db/db mice; assay type: in vivo, mouse; conditions: no apoptotic cell co-administration
# Description: as §2
# For topical applications, mice were intradermally injected with Imidazole ketone erastin (IKE at 20 mg kg^−1 in 100 μl PBS; MedChemExpress, #HY-114481) or recombinant human GDF-15 (0.7 mg kg^−1 in 100 μl PBS; R&D Systems, #9279-GD-050) or RSL3 (20 mg kg-1 in 100 μl PBS; Sellechem, #S8155) or the respective vehicle controls (DMSO or 4 mM HCl in 100 μl PBS) at the time of wounding and for two consecutive days. For the experiments indicated as ‘erastin regimen’ or vehicle regimen, 5 million apoptotic Jurkat cells were administrated once on day 0 in 50 μl PBS on top of back skin immediately after full-thickness excision biopsy. For the mice injected intradermally with supernatants from efferocytic dendritic cells, supernatants from dendritic cells cultured with apoptotic Jurkat cells for 16 h were collected, centrifuged to eliminate debris and frozen or lyophilized for preservation.
# [5] = system: Slc7a11-deficient dendritic cells; experiment: Efferocytosis by Slc7a11-deficient (Slc7a11 KO) dendritic cells; assay type: cell-based, mouse; conditions: Slc7a11 KO BMDC, apoptotic Jurkat targets
# Experimental: as §1
# [6] = system: dendritic cells; assay type: cell-based, mouse
# Description: FIG. 6D, Assessment of erastin drug cytotoxicity in dendritic cells by measuring Sytox Green fluorescence.
# FIG. 9B, Assessment of cytotoxicity of drugs tested on dendritic cells by measuring Sytox Green fluorescence.
molecule,measurement,setting,value
"O=CC[C@@H](O)[C@H](O)[C@H](O)CO [2-DG, 2-Deoxy-D-glucose]",erastin-dependent increase in efferocytosis by dendritic cells,[1],abrogated the enhanced efferocytosis due to Slc7a11 inhibition
"O=C(O)C(=O)CBr [3-BP, 3-Bromo-2-oxopropionic acid]",erastin-dependent increase in efferocytosis by dendritic cells,[1],dampened the enhanced inhibition due to erastin treatment
CN(C)C(=O)[C@H](O)[C@H](Cc1ccccc1)NC(=O)c1cc2cc(Cl)ccc2[nH]1 [CP-91149],erastin-dependent increase in efferocytosis by dendritic cells,[1],strongly abrogated the erastin-dependent increase in efferocytosis
same,glycogen levels in erastin-treated BMDC,[2],reversed the glycogen levels in erastin-treated BMDC almost to DMSO control
"[N-]=[N+]=CC(=O)CC[C@H](N)C(=O)O [DON, 6-Diazo-5-oxo-L-norleucine]",erastin-dependent increase in efferocytosis by dendritic cells,[1],marginally decreased the erastin-mediated augmented efferocytosis
"CC(C)Oc1ccc(C(=O)Cn2ccnc2)cc1-n1c(CN2CCN(C(=O)COc3ccc(Cl)cc3)CC2)nc2ccccc2c1=O [IKE, Imidazole ketone erastin]","wound healing, substance alone","[3]; full-thickness wound, no co-treatment",did not improve wound healing
same,"diabetic wound healing, substance alone",[4],improves skin wound healing in diabetic mice
COc1ccc(N(C(=O)CCl)C(C(=O)NCCc2ccccc2)c2cccs2)cc1Cl (stereo not drawn) [ML-162],efferocytosis (apoptotic cell uptake) by dendritic cells,[1],did not enhance efferocytosis; also recorded: does not enhance efferocytosis by dendritic cells
COC(=O)c1ccc([C@@H]2c3[nH]c4ccccc4c3C[C@@H](C(=O)OC)N2C(=O)CCl)cc1 [RSL3],"wound healing, given with apoptotic cells at day 0","[3]; apoptotic Jurkat cells once on day 0, drug from day 0 to day 2",did not improve wound healing
N#C/C(=C\c1cn(-c2ccccc2)c2ccccc12)C(=O)O [UK5099],erastin-dependent increase in efferocytosis by dendritic cells,[1],had no impact on efferocytosis
C=C1[C@@H](C)[C@H]2[C@H](Cc3ccccc3)NC(=O)[C@]23[C@H](OC(C)=O)/C=C/[C@@](C)(O)C(=O)[C@@H](C)C/C=C/[C@H]3[C@@H]1O [cytochalasin D],efferocytosis by Slc7a11-deficient dendritic cells,[5],abrogated
CCOc1ccccc1-n1c(C(C)N2CCN(C(=O)COc3ccc(Cl)cc3)CC2)nc2ccccc2c1=O (stereo not drawn) [erastin],dendritic cell viability,[6],did not affect dendritic cell viability
N[C@@H](CCC(=O)O)C(=O)O [glutamate],efferocytosis (apoptotic cell uptake) by dendritic cells,[1],boosted efferocytosis
B1,"diabetic wound healing, substance alone",[4],significantly improved wound healing in the db/db mice
same,"diabetic wound healing, substance alone",[4]; listed as recombinant GDF15,boosts healing

# Reference: patent US20240425857A1, “Means and Methods for Chronic Wound Healing” (VIB VZW, priority 2021, published 2024)
